Assay results as given in US8119687B2, “Derivatives of dioxan-2-alkyl carbamates, preparation thereof and application thereof in therapeutics” (Sanofi-Aventis, priority 2002, dated 2012).

SMILES | melting point [°C]
COc1ccc2cccc([C@H]3CO[C@H](CCCNC(=O)OCC(F)(F)F)OC3)c2c1 [compound 74, 2,2,2-trifluoroethyl trans-3-[5-(7-methoxynaphthalen-1-yl)-1,3-dioxan-2-yl]propylcarbamate] | 93 to 96
CNC(=O)COC(=O)NCC[C@H]1OC[C@H](c2cccc3ccccc32)CO1 [compound 39, 2-(methylamino)-2-oxoethyl trans-2-[5-(naphthalen-1-yl)-1,3-dioxan-2-yl]ethylcarbamate] | 86 to 88
COc1ccc2cccc([C@H]3CO[C@H](CCCNC(=O)OCC(N)=O)OC3)c2c1 [compound 72, 2-amino-2-oxoethyl trans-3-[5-(7-methoxynaphthalen-1-yl)-1,3-dioxan-2-yl]propylcarbamate] | 156 to 158
CNC(=O)COC(=O)NCC[C@H]1OC[C@H](c2cccc3cc(OC)ccc32)CO1 [compound 54, 2-(methylamino)-2-oxoethyl trans-2-[5-(6-methoxy-naphthalen-1-yl)-1,3-dioxan-2-yl]ethylcarbamate] | 136 to 138
NC(=O)COC(=O)NCCC[C@H]1OC[C@H](c2cccc3cc(OCC4CC4)ccc32)CO1 [compound 66, 2-amino-2-oxoethyl trans-3-[5-(6-cyclopropylmethoxy-naphthalen-1-yl)-1,3-dioxan-2-yl]propylcarbamate] | 137 to 139
CNC(=O)COC(=O)NCCC[C@H]1OC[C@H](c2ccc(Cl)c3ccccc32)CO1 [compound 47, 2-(methylamino)-2-oxoethyl trans-3-[5-(4-chloro-naphthalen-1-yl)-1,3-dioxan-2-yl]propylcarbamate] | 190 to 192
CNC(=O)COC(=O)NCCC[C@H]1OC[C@H](c2cccc3cc(Cl)ccc32)CO1 [compound 48, 2-(methylamino)-2-oxoethyl trans-3-[5-(6-chloro-naphthalen-1-yl)-1,3-dioxan-2-yl]propylcarbamate] | 182 to 184
COc1ccc2c(cccc2[C@H]2CO[C@H](CCNC(=O)OCC(F)(F)F)OC2)c1 [compound 56, 2,2,2-trifluoroethyl trans-2-[5-(6-methoxynaphthalen-1-yl)-1,3-dioxan-2-yl]ethylcarbamate] | 93 to 95
O=C(NCCC[C@H]1OC[C@H](c2ccc3ccccc3c2)CO1)OCC(F)(F)F [compound 78, 2,2,2-trifluoroethyl trans-3-[5-(naphthalen-2-yl)-1,3-dioxan-2-yl]propylcarbamate] | 130 to 132
O=C(NCC[C@H]1OC[C@H](c2cccc3ccccc32)CO1)OCC(F)(F)F [compound 41, 2,2,2-trifluoroethyl trans-2-[5-(naphthalen-1-yl)-1,3-dioxan-2-yl]ethylcarbamate] | 111 to 113
COc1ccc2c(cccc2[C@H]2CO[C@H](CCCNC(=O)Oc3ccccc3)OC2)c1 | 128
O=C(NCCC[C@H]1OC[C@H](c2cccc3cc(OCC4CC4)ccc32)CO1)Oc1ccc(Cl)cc1 | 159 to 162
COc1ccc2c(cccc2[C@H]2CO[C@H](CCCNC(=O)OCC(=O)NCc3ccncc3)OC2)c1 [compound 60, 2-[(pyridin-4-yl)methylamino]-2-oxoethyl trans-3-[5-(6-methoxynaphthalen-1-yl)-1,3-dioxan-2-yl]propylcarbamate] | 152
COc1ccc2cccc([C@H]3CO[C@H](CCCNC(=O)Oc4ccccc4)OC3)c2c1 | 151 to 153
COc1ccc2c(cccc2[C@H]2CO[C@H](CCCNC(=O)OCC(=O)NC3CC3)OC2)c1 [Compound No. 61, 2-(Cyclopropylamino)-2-oxoethyl trans-3-[5-(6-methoxy-naphthalen-1-yl)-1,3-dioxan-2-yl]propylcarbamate] | 176
O=C(NCCC[C@H]1OC[C@H](c2cccc3ccccc32)CO1)OCC(F)(F)F [compound 42, 2,2,2-trifluoroethyl trans-3-[5-(naphthalen-1-yl)-1,3-dioxan-2-yl]propylcarbamate] | 89 to 92

SMILES | melting point [°C]
O=C(NCCC[C@H]1OC[C@H](c2ccc3ccccc3c2)CO1)Oc1ccccc1 | 130 to 131
CNC(=O)COC(=O)NCCC[C@H]1OC[C@H](c2cccc3cc(O)ccc32)CO1 [compound 71, 2-(methylamino)-2-oxoethyl trans-3-[5-(6-hydroxy-naphthalen-1-yl)-1,3-dioxan-2-yl]propylcarbamate] | 140 to 148
CCNC(=O)COC(=O)NCCC[C@H]1OC[C@H](c2cccc3cc(OC)ccc32)CO1 [compound 58, 2-(ethylamino)-2-oxoethyl trans-3-[5-(6-methoxy-naphthalen-1-yl)-1,3-dioxan-2-yl]propylcarbamate] | 170 to 172
O=C(NCCC[C@H]1OC[C@H](c2cccc3ccccc32)CO1)Oc1ccccc1 | 125 to 127
COc1ccc2c(cccc2[C@H]2CO[C@H](CCCNC(=O)OCC(F)(F)F)OC2)c1 [compound 62, 2,2,2-trifluoroethyl trans-3-[5-(6-methoxynaphthalen-1-yl)-1,3-dioxan-2-yl]propylcarbamate] | 111
CNC(=O)COC(=O)NCCC[C@H]1OC[C@H](c2cccc3ccccc32)CO1 [compound 40, 2-(methylamino)-2-oxoethyl trans-3-[5-(naphthalen-1-yl)-1,3-dioxan-2-yl]propylcarbamate] | 154
CNC(=O)COC(=O)NCCC[C@H]1OC[C@H](c2ccc3ccccc3c2)CO1 [compound 77, 2-(methylamino)-2-oxoethyl trans-3-[5-(naphthalen-2-yl)-1,3-dioxan-2-yl]propylcarbamate] | 144 to 146
NC(=O)COC(=O)NCCC[C@H]1OC[C@H](c2cccc3ccccc32)CO1 [compound 38, 2-amino-2-oxoethyl trans-3-[5-(naphthalen-1-yl)-1,3-dioxan-2-yl]propylcarbamate] | 112 to 114
O=C(NCC[C@H]1OC[C@H](c2cccc3ccccc32)CO1)Oc1ccccc1 | 131 to 133
NC(=O)COC(=O)NCCC[C@H]1OC[C@H](c2cccc3cc(O)ccc32)CO1 [compound 70, 2-amino-2-oxoethyl trans-3-[5-(6-hydroxynaphthalen-1-yl)-1,3-dioxan-2-yl]propylcarbamate] | 166 to 170
CNC(=O)COC(=O)NCCC[C@H]1OC[C@H](c2cccc3ccc(OC)cc32)CO1 [compound 73, 2-(methylamino)-2-oxoethyl trans-3-[5-(7-methoxy-naphthalen-1-yl)-1,3-dioxan-2-yl]propylcarbamate] | 144 to 146
CNC(=O)COC(=O)NCCC[C@H]1OC[C@H](c2cccc3cc(OC)ccc32)CO1 [compound 57, 2-(methylamino)-2-oxoethyl trans-3-[5-(6-methoxy-naphthalen-1-yl)-1,3-dioxan-2-yl]propylcarbamate] | 128 to 130
NC(=O)COC(=O)NCCC[C@H]1OC[C@H](c2ccc(Cl)c3ccccc32)CO1 [Compound No. 46, 2-Amino-2-oxoethyl trans-3-[5-(4-chloronaphthalen-1-yl)-1,3-dioxan-2-yl]propylcarbamate] | 176 to 178
COc1ccc2c(cccc2[C@H]2CO[C@H](CCNC(=O)Oc3ccc(Cl)cc3)OC2)c1 | 129 to 131
O=C(NCCC[C@H]1OC[C@H](c2cccc3cc(OCC4CC4)ccc32)CO1)OCC(F)(F)F [Compound No. 68, 2,2,2-Trifluoroethyl trans-3-[5-(6-cyclopropylmethoxy-naphthalen-1-yl)-1,3-dioxan-2-yl]propylcarbamate] | 105 to 107
